According to paper PMC7318222, “A Family of Water‐Immiscible, Dipolar Aprotic, Diamide Solvents from Succinic Acid” (Chemsuschem, 2020):

Experiments:
ERα = target: T1, ERα (Homo sapiens, UniProt P03372); test: ERα CALUX reporter gene assay; assay type: cell-based; design: key: –: no effect observed up to the highest test concentration; details: PC10, 24 h exposure
T1 construct: expression construct for the full-length human receptor under investigation; expressed in transfected cells; host or cells: human U2-OS cells (ATCC HTB-96), stably transfected
T1 sequence (P03372 1-595): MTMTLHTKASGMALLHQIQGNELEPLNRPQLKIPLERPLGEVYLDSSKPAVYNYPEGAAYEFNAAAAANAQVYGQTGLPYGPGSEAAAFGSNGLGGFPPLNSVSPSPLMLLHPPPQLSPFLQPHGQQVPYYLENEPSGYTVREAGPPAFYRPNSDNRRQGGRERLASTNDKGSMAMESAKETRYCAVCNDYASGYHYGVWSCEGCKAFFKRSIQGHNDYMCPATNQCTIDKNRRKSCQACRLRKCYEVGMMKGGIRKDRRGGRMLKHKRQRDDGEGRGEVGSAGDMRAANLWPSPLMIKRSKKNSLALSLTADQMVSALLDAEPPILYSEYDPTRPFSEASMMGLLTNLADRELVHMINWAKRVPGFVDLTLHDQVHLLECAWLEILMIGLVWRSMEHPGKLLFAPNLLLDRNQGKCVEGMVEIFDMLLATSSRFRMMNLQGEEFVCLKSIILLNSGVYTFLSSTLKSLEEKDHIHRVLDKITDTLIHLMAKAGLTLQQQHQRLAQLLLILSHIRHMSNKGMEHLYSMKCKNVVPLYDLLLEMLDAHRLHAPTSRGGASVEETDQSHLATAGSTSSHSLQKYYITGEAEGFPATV
Text: Toluene ≥99.0%, hexane ≥99.5%,
DCM ≥99.5%, chloroform ≥99.5%, DMSO ≥99.0% were purchased from VWR. N,N-diethyl-4-nitroaniline ≥98.0% was purchased from Alfa Aeser. Cyrene was supplied by Circa group. N-butylpyrrolidinone was supplied by Eastman chemicals. N,N-dimethylformamide 99.9% and N,N-dimethylacetamide 99.9% were purchased from Fischer. The flakes of Ultrason® E3020 P Polyarylethersulfone of 55,000 Da were obtained from INGE.BASF, Germany. The CALUX cell lines have been described previously.[1] They are based on human U2-OS cells (ATCC, HTB-96) stably transfected with an expression construct for the full-length human receptor under investigation, and a reporter construct consisting of multimerized responsive elements for the cognate receptor coupled to a minimal promoter element (TATA) and a luciferase gene. Cells were maintained as described previously,[2] using cell culture media and supplements from Fisher Scientific as described in the experimental procedures section. […]
(§1) In vitro reporter gene assays
(§2) The automated CALUX assays were carried out similarly as described earlier,[12] with some adaptations. In brief, the assay was performed in CO2 independent medium (Fisher Scientific, […]
(§3) supplement (Fisher Scientific, 11574466), 10 U/mL penicillin and 10 µg/mL streptomycin. A cell suspension in assay medium was made of 1 × 10^5cells/mL, and white 384-wells plates were seeded with 30 µl cell suspension/well. After 24 h, exposure medium was prepared. A dilution series in 0.5log unit increments of each test compound (in DMSO) was added to a 96-wells plate containing assay medium (2% v/v). Of this exposure mixture, 30 µl was added to the assay plates containing the CALUX cells, resulting in a final DMSO concentration of 1%. Additionally, DMSO blanks and a full dose response curve of the relevant reference compound were included on each plate. All samples were tested in triplicate. The preparation of the compound dilution series as well as the exposure of the cells were performed on a Hamilton StarLET liquid handling robot coupled to a Cytomat incubator.
(§4) Directly after exposure, plates were sealed with non-breathing plate seals (Plate sealer, easy seal transparent; Greiner-Bio-One, 676001). After 24 h the exposure medium was removed using an EL406 washer-dispenser (BioTek) and 10 µl/well triton lysisbuffer was added by the EL406.
(§5) Subsequently, the luciferase signal was measured in a luminometer (InfinitePro coupled to a Connect Stacker, both TECAN). In order to be able to detect receptor antagonism, several assays were also performed in antagonistic mode. The assay procedure was as described above, with the only exception that the EC50 concentration of the reference agonist was present during the exposure.
(§6) The luminometer data was analysed as follows; the average of the triplicate wells was determined, and the average blank (DMSO) value was subtracted. For receptor-based assays the maximum response elicited by the reference compound was set to 100% (full receptor- or pathway activation), and the other values were scaled accordingly. […] For antagonist- and cytotoxicity experiments, PC20 values were determined instead, which was defined as the concentration where the test compound causes a 20% decrease in the basal signal, which was […]
(§7) curve, the signal induction above background (DMSO) was determined, and the concentration where the compound elicited a 1.5-fold increase above background was used as LEC.

p53 = p53 CALUX assay; assay type: cell-based, human; design: key: –: no effect observed up to the highest test concentration; details: cell signaling pathway assay, 24 h exposure
Text: Six of the CALUX assays (TCF through p53) detect activation of several cellular signaling pathways, which are indicative of general stress and acute toxicity, but also a range of more specific types of toxicity, including reproductive toxicity. […]
DCM ≥99.5%, chloroform ≥99.5%, DMSO ≥99.0% were purchased from VWR. […]
Polyarylethersulfone of 55,000 Da were obtained from INGE.BASF, Germany. The CALUX cell lines have been described previously.[1] They are based on human U2-OS cells (ATCC, HTB-96) stably transfected with an expression construct for the full-length human receptor under investigation, and a reporter construct consisting of multimerized responsive elements for the cognate receptor coupled to a minimal promoter element (TATA) and a luciferase gene. Cells were maintained as described previously,[2] using cell culture media and supplements from Fisher Scientific as described in the experimental procedures section. […]
as §1, §2, §3, §4, §5
as §6, with “accordingly. GraphPad Prism was used to fit a sigmoidal curve through the data (four parameters, variable slope).” for “accordingly.”
as §7

CCCCN(CC)C(=O)CCC(=O)N(CC)CCCC [EBSA, N,N′‐diethyl‐N,N′‐dibutylsuccindiamide]
LEC ERα (ERα): –
LEC p53 (p53): –

CCCCN(C)C(=O)CCC(=O)N(C)CCCC [MBSA, N,N′‐dimethyl‐N,N′‐dibutylsuccindiamide]
LEC ERα (ERα): –
LEC p53 (p53): –

CCCCN1CCCC1=O [NBP, N‐Butylpyrrolidinone, reference compound]
LEC ERα (ERα): –
LEC p53 (p53): –

CN1CCCC1=O [NMP, N‐methyl‐2‐pyrrolidone, reference compound]
LEC ERα (ERα): –
LEC p53 (p53): –

CCCCN(CCCC)C(=O)CCC(=O)N(CCCC)CCCC [TBSA, N,N,N′,N′‐tetrabutylsuccindiamide]
LEC ERα (ERα): –
LEC p53 (p53): –
